Data as given in ChEMBL document CHEMBL1138920, “Putative therapeutic agents for the learning and memory deficits of people with Down syndrome” (Bioorg Med Chem Lett, 2006).
Values belong to the molecule of their own block, whether it stands above or below them. Active and inactive are the calls of the source. The rule behind the calls is not given here.

Assays:
[1] = target: Dual specificity tyrosine-phosphorylation-regulated kinase 1A (Mus musculus, UniProt Q61214); assay: Inhibition of mouse Dyrk1A autophosphorylation in HEk293 cells; type: cell-based
[2] = target: Dual specificity tyrosine-phosphorylation-regulated kinase 1A (Mus musculus) (UniProt Q61214); assay: Inhibition of mouse Dyrk1A autophosphorylation in HEk293 cells at 10 uM; type: cell-based
[3] = target: CaM kinase II (Homo sapiens) (UniProt Q13557+Q13555+Q13554+Q9UQM7); assay: Activity against CaMK2 at 10 uM in the presence of 100 uM ATP relative to control; type: protein assay
[4] = target: Mitogen-activated protein kinase 1 (Homo sapiens) (UniProt P28482); assay: Activity against MAPK2 at 10 uM in the presence of 100 uM ATP relative to control
Mitogen-activated protein kinase 1 (Homo sapiens), sequence (P28482 whole entry): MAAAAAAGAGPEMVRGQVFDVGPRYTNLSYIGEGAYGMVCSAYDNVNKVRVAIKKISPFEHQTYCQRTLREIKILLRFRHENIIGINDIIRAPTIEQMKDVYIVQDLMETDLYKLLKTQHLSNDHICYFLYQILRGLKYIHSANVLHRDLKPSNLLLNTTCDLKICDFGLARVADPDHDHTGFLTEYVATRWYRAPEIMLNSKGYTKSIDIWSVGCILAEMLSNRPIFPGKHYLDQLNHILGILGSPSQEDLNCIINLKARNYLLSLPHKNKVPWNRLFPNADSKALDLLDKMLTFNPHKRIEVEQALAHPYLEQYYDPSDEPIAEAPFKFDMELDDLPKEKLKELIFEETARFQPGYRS

[5] = target: Mitogen-activated protein kinase 10 (Homo sapiens) (UniProt P53779); assay: Activity against JNK3 at 10 uM in the presence of 100 uM ATP relative to control
Mitogen-activated protein kinase 10 (Homo sapiens), sequence (P53779 whole entry): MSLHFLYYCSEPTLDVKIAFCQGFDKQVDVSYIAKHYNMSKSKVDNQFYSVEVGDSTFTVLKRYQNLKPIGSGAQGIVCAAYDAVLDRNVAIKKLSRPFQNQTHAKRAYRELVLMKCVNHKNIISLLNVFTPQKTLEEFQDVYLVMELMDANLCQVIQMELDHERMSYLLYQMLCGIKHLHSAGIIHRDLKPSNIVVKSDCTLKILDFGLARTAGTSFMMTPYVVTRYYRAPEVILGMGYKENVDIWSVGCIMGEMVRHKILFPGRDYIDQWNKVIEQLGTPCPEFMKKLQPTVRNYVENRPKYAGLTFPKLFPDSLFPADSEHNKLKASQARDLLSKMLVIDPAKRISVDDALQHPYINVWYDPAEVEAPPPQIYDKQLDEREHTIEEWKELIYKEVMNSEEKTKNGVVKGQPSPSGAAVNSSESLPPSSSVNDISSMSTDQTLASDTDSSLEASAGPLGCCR

[6] = target: Glycogen synthase kinase-3 beta (Homo sapiens) (UniProt P49841); assay: Activity against GSK3-beta at 10 uM in the presence of 100 uM ATP relative to control
Glycogen synthase kinase-3 beta (Homo sapiens), sequence (P49841 whole entry, looked up): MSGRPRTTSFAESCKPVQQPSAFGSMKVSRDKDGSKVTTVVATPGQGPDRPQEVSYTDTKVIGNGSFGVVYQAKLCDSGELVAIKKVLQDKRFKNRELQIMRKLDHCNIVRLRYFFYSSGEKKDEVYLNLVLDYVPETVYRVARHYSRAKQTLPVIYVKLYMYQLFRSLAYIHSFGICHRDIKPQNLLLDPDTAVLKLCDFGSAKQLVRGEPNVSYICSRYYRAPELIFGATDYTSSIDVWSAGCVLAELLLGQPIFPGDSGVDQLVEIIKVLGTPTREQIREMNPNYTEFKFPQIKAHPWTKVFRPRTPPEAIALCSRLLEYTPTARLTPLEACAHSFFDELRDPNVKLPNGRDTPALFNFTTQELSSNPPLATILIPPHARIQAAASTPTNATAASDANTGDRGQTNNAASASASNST

[7] = target: Cyclin-dependent kinase 2/cyclin A (Homo sapiens) (UniProt P24941+P20248+P78396); assay: Activity against CDK2/cyclinA at 10 uM in the presence of 100 uM ATP relative to control; type: protein-complex assay
[8] = target: Cyclin-dependent kinase 5/CDK5 activator 1 (Homo sapiens) (UniProt Q00535+Q15078); assay: Activity against CDK5/p35 at 10 uM in the presence of 100 uM ATP relative to control; type: protein-complex assay
Cyclin-dependent kinase 5/CDK5 activator 1 (Homo sapiens), sequence (Q00535 whole entry): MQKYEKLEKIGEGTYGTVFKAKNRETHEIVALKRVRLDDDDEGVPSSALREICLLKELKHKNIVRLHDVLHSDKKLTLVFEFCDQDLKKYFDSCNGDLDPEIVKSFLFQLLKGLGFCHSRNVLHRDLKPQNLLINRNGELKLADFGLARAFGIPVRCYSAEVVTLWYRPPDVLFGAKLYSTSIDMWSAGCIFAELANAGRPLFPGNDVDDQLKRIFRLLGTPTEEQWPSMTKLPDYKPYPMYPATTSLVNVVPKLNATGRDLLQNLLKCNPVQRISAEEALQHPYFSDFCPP
Cyclin-dependent kinase 5/CDK5 activator 1 (Homo sapiens), sequence (Q15078 99-307 partner limits assumed): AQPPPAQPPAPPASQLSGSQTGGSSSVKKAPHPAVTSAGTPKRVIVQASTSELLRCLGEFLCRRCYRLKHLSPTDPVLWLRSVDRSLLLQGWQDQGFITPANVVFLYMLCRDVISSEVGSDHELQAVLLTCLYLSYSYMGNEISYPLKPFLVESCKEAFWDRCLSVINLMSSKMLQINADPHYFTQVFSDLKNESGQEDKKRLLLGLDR

[9] = target: Dual specificity protein kinase CLK3 (Homo sapiens) (UniProt P49761); assay: Activity against CLK3 at 10 uM in the presence of 100 uM ATP relative to control
Dual specificity protein kinase CLK3 (Homo sapiens), sequence (P49761 whole entry, looked up): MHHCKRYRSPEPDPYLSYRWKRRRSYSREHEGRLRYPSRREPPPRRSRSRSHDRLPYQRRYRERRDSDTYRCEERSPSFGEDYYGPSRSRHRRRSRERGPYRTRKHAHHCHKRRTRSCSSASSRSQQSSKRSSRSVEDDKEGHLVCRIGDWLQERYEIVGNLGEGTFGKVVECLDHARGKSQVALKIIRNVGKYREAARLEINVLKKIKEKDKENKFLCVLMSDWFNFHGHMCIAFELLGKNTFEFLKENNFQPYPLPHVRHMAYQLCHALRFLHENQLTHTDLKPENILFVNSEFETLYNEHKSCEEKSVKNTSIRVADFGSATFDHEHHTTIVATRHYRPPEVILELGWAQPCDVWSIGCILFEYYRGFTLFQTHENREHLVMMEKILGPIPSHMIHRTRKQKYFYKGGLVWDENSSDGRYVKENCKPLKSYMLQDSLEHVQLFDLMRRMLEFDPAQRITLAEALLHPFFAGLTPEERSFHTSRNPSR

[10] = target: cAMP-dependent protein kinase (PKA) (Homo sapiens) (UniProt P22694+P17612+P22612); assay: Activity against PKA at 10 uM in the presence of 100 uM ATP relative to control; type: protein assay
[11] = target: Mitogen-activated protein kinase 14 (Homo sapiens) (UniProt Q16539); assay: Activity against SAPK2-alpha at 10 uM in the presence of 100 uM ATP relative to control
Mitogen-activated protein kinase 14 (Homo sapiens), sequence (Q16539 whole entry): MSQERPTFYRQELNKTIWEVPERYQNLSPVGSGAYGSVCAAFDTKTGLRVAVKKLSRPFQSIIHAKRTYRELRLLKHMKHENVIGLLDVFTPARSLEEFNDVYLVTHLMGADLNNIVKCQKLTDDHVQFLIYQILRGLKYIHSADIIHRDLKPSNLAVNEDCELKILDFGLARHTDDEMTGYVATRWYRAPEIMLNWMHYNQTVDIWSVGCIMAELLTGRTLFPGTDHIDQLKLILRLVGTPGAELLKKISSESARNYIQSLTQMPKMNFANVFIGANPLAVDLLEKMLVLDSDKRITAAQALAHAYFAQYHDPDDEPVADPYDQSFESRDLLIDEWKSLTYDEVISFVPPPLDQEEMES

[12] = target: Casein kinase II (Homo sapiens) (UniProt P67870+P68400+P19784); assay: Activity against CK2 at 10 uM in the presence of 100 uM ATP relative to control; type: protein-complex assay
[13] = target: T1, Dual specificity tyrosine-phosphorylation-regulated kinase 2 (Homo sapiens) (UniProt Q92630); assay: Activity against DYRK2 at 10 uM in the presence of 100 uM ATP relative to control
T1 sequence (whole entry): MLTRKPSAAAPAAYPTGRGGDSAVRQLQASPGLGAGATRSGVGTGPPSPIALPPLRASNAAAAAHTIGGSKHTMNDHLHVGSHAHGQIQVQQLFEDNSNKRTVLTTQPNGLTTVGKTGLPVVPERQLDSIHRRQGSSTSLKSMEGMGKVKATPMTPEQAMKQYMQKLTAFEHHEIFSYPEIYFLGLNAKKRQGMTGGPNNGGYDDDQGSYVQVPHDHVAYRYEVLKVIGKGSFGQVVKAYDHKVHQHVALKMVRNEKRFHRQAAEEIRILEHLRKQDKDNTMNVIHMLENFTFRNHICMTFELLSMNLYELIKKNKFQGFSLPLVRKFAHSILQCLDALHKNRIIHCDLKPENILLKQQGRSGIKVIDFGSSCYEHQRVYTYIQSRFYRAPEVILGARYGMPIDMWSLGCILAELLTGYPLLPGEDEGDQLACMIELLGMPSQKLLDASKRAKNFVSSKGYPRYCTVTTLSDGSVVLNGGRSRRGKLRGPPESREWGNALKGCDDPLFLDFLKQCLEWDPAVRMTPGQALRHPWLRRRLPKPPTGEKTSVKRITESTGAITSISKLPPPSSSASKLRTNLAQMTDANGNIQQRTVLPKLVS

[14] = target: Protein kinase C alpha type (Homo sapiens) (UniProt P17252); assay: Activity against PKCalpha at 10 uM in the presence of 100 uM ATP relative to control
[15] = target: T2, MAP kinase-activated protein kinase 5 (Homo sapiens) (UniProt Q8IW41); assay: Activity against PRAK at 10 uM in the presence of 100 uM ATP relative to control
T2 sequence (whole entry): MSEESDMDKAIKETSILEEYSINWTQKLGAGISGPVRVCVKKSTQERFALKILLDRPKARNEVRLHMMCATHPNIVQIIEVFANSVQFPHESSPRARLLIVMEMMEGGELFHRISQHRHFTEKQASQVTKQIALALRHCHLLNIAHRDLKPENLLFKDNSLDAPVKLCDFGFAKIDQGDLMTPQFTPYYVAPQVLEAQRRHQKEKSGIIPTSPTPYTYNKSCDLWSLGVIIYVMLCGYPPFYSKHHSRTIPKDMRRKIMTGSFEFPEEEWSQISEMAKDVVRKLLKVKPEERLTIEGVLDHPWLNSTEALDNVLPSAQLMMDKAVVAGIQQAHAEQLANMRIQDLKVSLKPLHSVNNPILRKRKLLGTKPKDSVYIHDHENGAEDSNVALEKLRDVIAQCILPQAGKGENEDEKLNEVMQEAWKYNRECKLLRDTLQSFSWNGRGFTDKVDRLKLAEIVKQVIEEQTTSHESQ

[16] = target: Tyrosine-protein kinase ABL1 (Homo sapiens) (UniProt P00519); assay: Activity against Abl at 10 uM in the presence of 100 uM ATP relative to control
Tyrosine-protein kinase ABL1 (Homo sapiens), sequence (P00519 whole entry): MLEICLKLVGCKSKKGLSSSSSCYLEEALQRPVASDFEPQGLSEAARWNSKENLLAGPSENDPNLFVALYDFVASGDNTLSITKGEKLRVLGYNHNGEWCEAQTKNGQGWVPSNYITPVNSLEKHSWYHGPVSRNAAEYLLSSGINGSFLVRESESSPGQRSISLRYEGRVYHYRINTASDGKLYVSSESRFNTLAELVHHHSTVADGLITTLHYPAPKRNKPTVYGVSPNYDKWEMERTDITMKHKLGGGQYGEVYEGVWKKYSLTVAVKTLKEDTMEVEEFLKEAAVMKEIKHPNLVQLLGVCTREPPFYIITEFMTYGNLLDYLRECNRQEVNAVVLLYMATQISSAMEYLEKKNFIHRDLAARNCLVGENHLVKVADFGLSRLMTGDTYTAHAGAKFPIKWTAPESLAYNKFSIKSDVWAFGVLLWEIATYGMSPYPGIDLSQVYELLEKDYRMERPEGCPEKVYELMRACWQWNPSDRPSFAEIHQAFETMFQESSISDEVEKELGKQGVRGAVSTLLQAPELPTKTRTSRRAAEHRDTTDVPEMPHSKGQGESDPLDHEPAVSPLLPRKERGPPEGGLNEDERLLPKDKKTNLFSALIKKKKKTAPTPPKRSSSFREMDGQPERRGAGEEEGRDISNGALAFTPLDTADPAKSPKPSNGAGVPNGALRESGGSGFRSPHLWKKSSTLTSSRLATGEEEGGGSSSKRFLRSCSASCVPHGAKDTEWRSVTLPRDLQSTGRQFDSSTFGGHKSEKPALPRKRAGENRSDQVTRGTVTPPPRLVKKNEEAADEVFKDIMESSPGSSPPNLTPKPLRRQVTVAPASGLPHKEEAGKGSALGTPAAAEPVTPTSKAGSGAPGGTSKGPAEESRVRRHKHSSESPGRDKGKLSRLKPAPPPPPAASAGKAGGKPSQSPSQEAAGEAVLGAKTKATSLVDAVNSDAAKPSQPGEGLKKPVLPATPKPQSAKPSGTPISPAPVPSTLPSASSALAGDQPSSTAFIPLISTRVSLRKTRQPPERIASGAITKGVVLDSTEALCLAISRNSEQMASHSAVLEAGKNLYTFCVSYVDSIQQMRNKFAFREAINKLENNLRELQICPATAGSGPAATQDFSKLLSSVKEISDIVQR

[17] = target: Tyrosine-protein kinase Lck (Homo sapiens) (UniProt P06239); assay: Activity against Lck at 10 uM in the presence of 100 uM ATP relative to control
Tyrosine-protein kinase Lck (Homo sapiens), sequence (P06239 2-509 limits assumed): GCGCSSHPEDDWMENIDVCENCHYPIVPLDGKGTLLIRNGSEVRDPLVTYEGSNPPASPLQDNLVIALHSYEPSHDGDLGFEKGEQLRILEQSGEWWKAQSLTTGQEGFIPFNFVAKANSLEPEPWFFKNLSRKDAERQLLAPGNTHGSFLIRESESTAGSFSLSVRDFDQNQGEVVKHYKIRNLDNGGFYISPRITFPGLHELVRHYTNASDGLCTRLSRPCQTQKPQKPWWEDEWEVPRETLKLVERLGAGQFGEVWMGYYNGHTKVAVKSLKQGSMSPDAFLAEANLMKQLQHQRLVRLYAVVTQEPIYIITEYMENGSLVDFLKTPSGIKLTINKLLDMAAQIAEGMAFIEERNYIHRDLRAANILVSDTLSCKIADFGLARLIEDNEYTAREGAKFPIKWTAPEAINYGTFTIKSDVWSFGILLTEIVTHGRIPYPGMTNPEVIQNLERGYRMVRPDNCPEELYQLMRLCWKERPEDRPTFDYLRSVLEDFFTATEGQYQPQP

IC50 [1]: 20 µM
SMILES: COc1ccc(O)c(-c2cc(-c3ccccc3Cl)n[nH]2)c1

inhibition [2]: inactive
IC50 [1]: 20 µM
SMILES: C=CCOc1ccc(Br)cc1/C=C1\SC(Nc2ccc(Cl)c(C(=O)O)c2)=NC1=O

inhibition [2]: 25%
IC50 [1]: > 50 µM
SMILES: Cc1cccc(Nc2nc(-c3c(C)nc4ncccn34)cs2)c1

inhibition [2]: 12%
IC50 [1]: 50 µM
SMILES: CN1C(=O)/C(=C2\SC(Nc3ccc(F)cc3)=NC2=O)c2ccccc21

inhibition [2]: 52%
IC50 [1]: 10 µM
SMILES: CCOC(=O)c1ccc2ncc(C(=O)OCC)c(Nc3ccc(NC(C)=O)cc3)c2c1

Activity [3]: 72%
Activity [4]: 122%
Activity [5]: 86%
Activity [6]: 69%
Activity [7]: 90%
Activity [8]: 99%
inhibition [2]: 82%
Activity [9]: 36%
Activity [10]: 107%
Activity [11]: 112%
Activity [12]: 61%
Activity [13]: 59%
Activity [14]: 78%
Activity [15]: 71%
IC50 [1]: 2.5 µM
Activity [16]: 94%
Activity [17]: 105%
SMILES: COc1cc(/C=C2\C(=O)NN(c3ccc(Cl)c(Cl)c3)C2=O)ccc1O

inhibition [2]: 74%
IC50 [1]: > 50 µM
SMILES: COc1cc(/C=C2\C(=O)NN(c3cccc(Cl)c3)C2=O)ccc1O

inhibition [2]: 43%
SMILES: COc1ccc(O)c(-c2cc(-c3ccccc3Cl)[nH]n2)c1

inhibition [2]: 8%
IC50 [1]: 5 µM
SMILES: Brc1ccc(Nc2nc(NCc3ccco3)c3ccccc3n2)cc1

Activity [3]: 98%
Activity [4]: 138%
Activity [5]: 98%
Activity [6]: 47%
Activity [7]: 96%
Activity [8]: 104%
inhibition [2]: 41%
Activity [9]: 11%
Activity [10]: 104%
Activity [11]: 101%
Activity [12]: 110%
Activity [13]: 77%
Activity [14]: 83%
Activity [15]: 69%
IC50 [1]: 5 µM
Activity [16]: 96%
Activity [17]: 113%
SMILES: COc1cccc(NC(=O)Nc2nnc(-c3ccncc3)s2)c1

inhibition [2]: 51%
IC50 [1]: 50 µM
SMILES: CCOC(=O)c1cnc2ccc(C(=O)OC)cc2c1Nc1cccc(C(C)=O)c1

inhibition [2]: 13%
IC50 [1]: 50 µM
SMILES: CCOC(=O)c1ccc2ncc(C(=O)OCC)c(Nc3ccc(C)c(Br)c3)c2c1
